Data reported in US20260060908A1, “USE OF FATTY ACIDS FOR MICROBIOME BENEFIT AND COMPOSITIONS COMPRISING THE SAME” (Conopco, Inc., d/b/a UNILEVER, priority 2022, published 2026).

These molecules were tested on S. epidermidis (assay: Growth of S. epidermidis in the presence of fatty acids (absorbance 620 nm growth curve)). Settings: Staphylococcus epidermidis; oleic acid, linoleic acid at 0.01% and their combination; control = 100; read-out: % increase over control.
Assay type: cell-based
Experimental: Experiments were carried out on the growth of S. Epidermidis in the presence of various fatty acids using the following procedure.
(§1) The microorganism (S. epidermidis or S. hominis as the case may be) was streaked on TSA agar plate and incubated at 37° C. for 24 hr
(§2) The test samples (200 μl) were added to 96 well plate, followed by addition of above set cultures (20 μl).
(§3) The 96 well plate was placed in a Tecan reader and absorbance was read at 620 nm for a period of 24-30 h with a kinetic interval of 1 h
(§4) The values obtained is plotted as a growth curve with X-axis representing time in hour and Y-axis as absorbance read at 620 nm.
Molecule CCCCCCCC/C=C\CCCCCCCC(=O)O [Example 11, Oleic acid] has an activity at 0.01 % of 135%. Work on CCCCC/C=C\C/C=C\CCCCCCCC(=O)O [Example 12, Linoleic acid] yielded an activity at 0.01 % of 132%.

Same assay, conditions: Staphylococcus epidermidis; unsaturated fatty acids at 0.001%; at the end of 24 to 30 hours; control = 100.0; read-out: % increase over control
For CCCCCCCC/C=C\CCCCCCCC(=O)O [Example 7, Oleic acid], the activity at 0.001 % was 132%. Molecule CCCCC/C=C\C/C=C\CCCCCCCC(=O)O [Example 8, Linoleic acid] has an activity at 0.001 % of 146%. CCCCCC/C=C\CCCCCCCC(=O)O [Example G, Palmitoleic acid, reference compound] gave an activity at 0.001 % of 98.4%.

Each molecule was assayed on S. Hominis (assay: Growth of S. hominis in the presence of fatty acids (absorbance 620 nm growth curve)). Settings: saturated fatty acids, concentration per example, at the end of 24 to 30 hours, control = 100.0.
Assay type: cell-based
Experimental: • 5% of fatty acid stock is made in DMSO-0.5 g in 10 ml of DMSO • 2.68% of fatty acid (Total volume 5 ml) is made with 2.68 ml of 5% fatty acid stock+[…] of DMSO+0.45 ml of Tween 80. • Test samples: 50 μl 2.68% stock in 4.95 ml 1/10th diluted TSB (test samples)
as §1
Plate cultures of the microorganism was used to set up 0.3 OD620nm (corresponding to log 10^8 CFU/ml) in 1× PBS (pH7.4)
as §2, §3, §4
Experiments similar to those in Table-1 were carried out except that the microorganism used was S. Hominis.
CCCCCCCCCCCC(=O)O [D, Lauric acid] was tested, and the “% increase over control” value was 63.0%. With CCCCCCCCCCCCCC(=O)O [E, myristic acid] the “% increase over control” value was 52.0%. For CCCCCCCCCCCCCCCCCCCC(=O)O [Example 5, arachidic acid], the “% increase over control” value was 123.0%. For CCCCCCCCCCCCCCCCCCCCCCCC(=O)O [Example 6, lignoceric acid], the “% increase over control” value was 153.0%. CCCCCCCCCCCCCCCC(=O)O [Example F, palmitic acid] was tested, and the “% increase over control” value was 104.0%.
